According to the supplement of paper PMC7017272:
± gives the standard deviation of the averaged measurements.

Experiments:
Experiment in all cases: maximal % inhibition of viability relative to DMSO; higher = stronger effect
Settings in all cases: treatment time: 3 days
UT-SCC-42A = tested on: UT-SCC-42A
Method: (§1)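 HNSCC cell lines (500 cells/well, 384-well) were cultured on plastic, on top of (2D) or embedded (3D) in Matrigel or human leiomyoma matrix Myogel (500 ug/mL; Myogel 3D mixed with rat collagen I). Cells were treated for 3 days with 5 ten-fold concentrations of each drug, and viability was read by CellTiter-Glo. Viability was normalised to DMSO and benzethonium chloride controls and fitted with the FIMM DSRT pipeline to give IC50 (nM), maximal % inhibition and DSS. Suffixes _1/_2/_3 are replicates. Only inhibition-mode (IC50) fits are kept.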

UT-SCC-14 = tested on: UT-SCC-14
Method: as §1

UT-SCC-28 = tested on: UT-SCC-28
Method: as §1

UT-SCC-81 = tested on: UT-SCC-81
Method: as §1

UT-SCC-8 = tested on: UT-SCC-8
Method: as §1

UT-SCC-40 = tested on: UT-SCC-40
Method: as §1

UT-SCC-24B = tested on: UT-SCC-24B
Method: as §1

UT-SCC-42B = tested on: UT-SCC-42B
Method: as §1

[1] = culture condition: embedded in Myogel + collagen I
[2] = culture condition: on top of Matrigel
[3] = culture condition: on top of Myogel
[4] = culture condition: plastic 2D (no matrix)
[5] = culture condition: embedded in Matrigel

CN(C)C/C=C/C(=O)Nc1cc2c(Nc3ccc(F)c(Cl)c3)ncnc2cc1O[C@H]1CCOC1 [Afatinib]
maximal % inhibition of viability (UT-SCC-42A; [1]): 13.4 ± 9.6% | maximal % inhibition of viability (UT-SCC-42A; [2]): 54 ± 2.1% | maximal % inhibition of viability (UT-SCC-42A; [3]): 26.6 ± 1.1% | maximal % inhibition of viability (UT-SCC-42A; [4]): 50.7 ± 2.2% | maximal % inhibition of viability (UT-SCC-14; [5]): 74.9 ± 5.2% | maximal % inhibition of viability (UT-SCC-14; [1]): 44.3 ± 12% | maximal % inhibition of viability (UT-SCC-14; [2]): 74.6 ± 7.7% | maximal % inhibition of viability (UT-SCC-14; [3]): 47.3 ± 16% | maximal % inhibition of viability (UT-SCC-14; [4]): 71.4 ± 10% | maximal % inhibition of viability (UT-SCC-28; [5]): 3.87 ± 5.3% | maximal % inhibition of viability (UT-SCC-28; [1]): 14.7 ± 6.2% | maximal % inhibition of viability (UT-SCC-28; [2]): 12 ± 4% | maximal % inhibition of viability (UT-SCC-28; [4]): 8.87 ± 2.8% | maximal % inhibition of viability (UT-SCC-81; [5]): 88.3 ± 2.3% | maximal % inhibition of viability (UT-SCC-81; [1]): 33.4 ± 37% | maximal % inhibition of viability (UT-SCC-81; [2]): 83.3 ± 2.2% | maximal % inhibition of viability (UT-SCC-81; [3]): 23 ± 7.8% | maximal % inhibition of viability (UT-SCC-81; [4]): 71.2 ± 5% | maximal % inhibition of viability (UT-SCC-8; [5]): 96.67 ± 0.42% | maximal % inhibition of viability (UT-SCC-8; [1]): 22.4 ± 19% | maximal % inhibition of viability (UT-SCC-8; [2]): 94.3 ± 0.36% | maximal % inhibition of viability (UT-SCC-8; [3]): 45.4 ± 12% | maximal % inhibition of viability (UT-SCC-8; [4]): 90.7 ± 1.6% | maximal % inhibition of viability (UT-SCC-40; [5]): 80.3 ± 2.6% | maximal % inhibition of viability (UT-SCC-40; [1]): 26.2 ± 14% | maximal % inhibition of viability (UT-SCC-40; [2]): 74.2 ± 2.8% | maximal % inhibition of viability (UT-SCC-40; [3]): 22.6 ± 4.6% | maximal % inhibition of viability (UT-SCC-40; [4]): 59.8 ± 7.3% | maximal % inhibition of viability (UT-SCC-24B; [5]): 63.2 ± 3% | maximal % inhibition of viability (UT-SCC-24B; [1]): 37.8 ± 14% | maximal % inhibition of viability (UT-SCC-24B; [2]): 56.5 ± 1.6% | maximal % inhibition of viability (UT-SCC-24B; [3]): 21.4 ± 3.8% | maximal % inhibition of viability (UT-SCC-24B; [4]): 71.4 ± 3.5% | maximal % inhibition of viability (UT-SCC-42B; [5]): 73.7 ± 4.9% | maximal % inhibition of viability (UT-SCC-42B; [2]): 54.4 ± 3.4% | maximal % inhibition of viability (UT-SCC-42B; [3]): 9.53 ± 0.45% | maximal % inhibition of viability (UT-SCC-42B; [4]): 37.8 ± 4.5%
